Measured values from publication PMC6022219, “Identification and Characterization of a Novel Palmitoyl Acyltransferase as a Druggable Rheostat of Dynamic Palmitoylome in L. donovani” (Frontiers in Cellular and Infection Microbiology, 2018).

Legend:
[1] = target: T1, LdPAT4-DHHC (Leishmania donovani, UniProt A0A3S7X1Q3); assay: click-chemistry metabolic labelling of E. coli expressing LdPAT4-DHHC, Oregon Green […] fluorometry; format: cell-based; settings: 100 uM Alk-C16, induced E. coli Rosetta cells, 37 C, 6 h; labelled compound (alkyne probe)
T1 construct: gene LdCL_280025100; DHHC domain only (423 bp), N-terminal GST tag (pGEX-4T-1, BamHI/SalI), E. coli Rosetta, ~40 kDa with tag
T1 sequence (A0A3S7X1Q3 268-407): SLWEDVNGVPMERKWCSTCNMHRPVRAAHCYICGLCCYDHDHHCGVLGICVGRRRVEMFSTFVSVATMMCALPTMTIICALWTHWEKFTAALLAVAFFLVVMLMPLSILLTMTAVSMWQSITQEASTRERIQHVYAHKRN

[2] = target: T1, LdPAT4-DHHC; assay: as above; format: cell-based; settings: substrate Alk-C16 100 uM, induced E. coli Rosetta cells, 37 C, 6 h; 2-BMP concentration not stated

| Structure (SMILES) | click-chemistry metabolic labelling of E. coli expressing LdPAT4-DHHC, Oregon Gr [1] | reduction in fluorescence intensity [2] |
| --- | --- | --- |
| C#CCCCCCCCCCCCCCC(=O)O [Alk-C16] | predominant incorporation of palmitic acid analogs into transformed E. coli | – |
| CCCCCCCCCCCCCCC(Br)C(=O)O (centres unmarked) [2-BMP] | – | following 2-BMP treatment of induced cells, reduction in fluorescence intensity was detected |
